Experimental data taken from PubChem BioAssay (NCI).
“And” between values parts separate entries of the source, which are not always exact repeats. Identical values can stand only once.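 Five compound concentrations were applied to cells in 96-well plates for 48 hours; endpoints were derived by simple linear interpolation of the resulting dose-response curve. GI50 is the concentration that inhibits growth by half. At the TGI there is no net growth.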

Columns and labels:
Assay in all cases: NCI-60 cell line screen, 48 h
[1] = tested on: SW-620 colon
[2] = tested on: IGROV1 ovarian
[3] = tested on: HOP-62 NSCLC
[4] = tested on: NCI-H226 lung
[5] = tested on: RXF 393 renal
[6] = tested on: K-562 leukemia
[7] = tested on: HT29 colon
[8] = tested on: T-47D breast
[9] = tested on: U251 CNS
[10] = tested on: SNB-75 CNS

Row | Structure (SMILES) | GI50 [1] [µM] | TGI [1] | GI50 [2] [µM] | TGI [2] | GI50 [3] [µM] | TGI [3] | GI50 [4] [µM] | TGI [4] | GI50 [5] [µM] | TGI [5] | GI50 [6] [µM] | TGI [6] | GI50 [7] [µM] | TGI [7] | GI50 [8] [µM] | TGI [8] [µM] | GI50 [9] [µM] | TGI [9] | GI50 [10] [µM] | TGI [10]
1 | N#CCCN1C/C(=C/c2ccc(Cl)cc2)C(=O)/C(=C/c2ccc(Cl)cc2)C1 | 0.338 | 1.15 µM | 1.75 | 3.95 µM | 0.516 | 2.94 µM | 2.35 | 8.48 µM | 1.22 | 2.61 µM | 0.378 | > 100 µM | 0.238 | 0.574 µM | 3.12 | 13.8 | 0.417 | 1.48 µM | 2.19 | 6.8 µM
2 | Cc1cc(N=Nc2ccccc2C)ccc1N | 14.8 | 48.5 µM and 30.8 µM | 5.1 | 48.3 µM and 20 µM | 15.2 | 19.2 µM and 36.4 µM | 10.3 | 30.8 µM and 27.8 µM | 15.1 | 22.9 µM and 33.7 µM | 12.8 | 32.8 µM and > 100 µM |  | 33.3 µM and 38.2 µM | 13.3 | 78.5 |  | 35.7 µM and 30.4 µM | 4.1 | 28.1 µM and 31.9 µM
3 | O=C(/C=C/c1cccc(O)c1)c1cccc(-n2cc(-c3ccccc3)[nH]c2=O)c1 | 2.13 | 4.74 µM | 3.24 | 13.2 µM | 4.27 | > 25.9 µM | 8.48 | 28.5 µM | 1.83 | 3.51 µM | 2.52 | > 24.8 µM | 2.58 | > 20.6 µM | 3.14 | 12.1 | 1.56 | 3.05 µM | 5.7 | 18.2 µM
4 | Oc1c(I)cc(I)c2cccnc12 | 3.74 | > 100 µM | 4.24 | 30.8 µM | 4.85 | 26.8 µM | 4.51 | 29.2 µM | 11.4 | 29.8 µM | 5.01 | > 100 µM | 8.91 | > 100 µM | 2.88 | 15.6 | 3.74 | 25.3 µM | 15.3 | > 100 µM
5 | OCCNC1c2cc(Cl)ccc2-c2c(Cl)cc(Cl)cc21 (stereo unspecified) |  | > 100 µM |  | 47 µM |  | > 100 µM |  | > 100 µM |  | > 100 µM |  | > 100 µM |  | > 100 µM |  | > 100 |  | > 100 µM |  | > 100 µM
6 | COC1=C(OC)C(=O)C(SC/C=C(\C)CCCC(C)CCCC(C)CCCC(C)C)=CC1=O (stereo unspecified) | 0.872 | > 100 µM | 2.94 | > 29.2 µM | 3.05 | > 100 µM | 2.75 | > 100 µM | 1.36 | > 91.6 µM | 0.678 | > 100 µM | 4.24 | > 100 µM | 0.478 | 12.1 | 0.479 | > 100 µM | 0.972 | > 26.1 µM
7 | C[N+](C)(C)CC1CCCC1=O (stereo unspecified) |  | 1.07 µM |  | 32.3 µM |  | > 68 µM |  | 34.6 µM |  | 5.3 µM |  | > 100 µM |  | 3.34 µM |  | 0.448 |  | 29.3 µM |  | 7.98 µM
8 | O=C(O)Cc1cccnc1 |  | > 100 µM |  | > 100 µM |  | > 100 µM |  | > 100 µM |  | > 100 µM |  | > 100 µM |  | > 100 µM |  | > 100 |  | > 100 µM |  | > 100 µM
9 | CC(C)(O)CNc1nc(Nc2ccnc(C(F)(F)F)c2)nc(-c2cccc(C(F)(F)F)n2)n1 | 26.7 | 86.5 µM | 28.6 | 74.5 µM | 21.4 | 52.8 µM | 20.8 | 58.2 µM | 20.7 | 48.4 µM | 29.4 | > 100 µM | 17.1 | 41.2 µM | 17.7 | 56.7 | 25.9 | 78.2 µM | 15.9 | 42.7 µM
10 | CSc1nc2sc3c(c2c(=O)n1-c1ccc(C(C)C)cc1)CCC(=O)C3 | 2.23 | 4.56 µM | 2.02 | 4.88 µM | 2.05 | 4.05 µM | 1.99 | 4.68 µM | 2.21 | 5.37 µM | 3.02 | 9.04 µM | 2.97 | 6.7 µM | 1.81 | 3.74 | 1.7 | 3.07 µM | 2.22 | 5.21 µM
11 | Nc1nc(Nc2ccccc2SSc2ccccc2Nc2nc(N)nc(C(Cl)(Cl)Cl)n2)nc(C(Cl)(Cl)Cl)n1 | 2.67 | 7.99 µM | 3.49 | 15.7 µM | 2.07 | 6.33 µM | 3.49 | 15.9 µM | 3.47 | 10.3 µM | 3.93 | 17.7 µM | 22.3 | 79.7 µM | 2.79 | 39.2 | 2.29 | 5.85 µM | 2.94 | 22.3 µM
12 | C/C(=C\c1cnc(C)s1)[C@@H]1C[C@@H]2O[C@@H]2CCC[C@H](C)[C@H](O)[C@@H](C)C(=O)C(C)(C)[C@@H](O)CC(=O)O1 | < 0.01 | > 100 µM | 0.0103 | > 100 µM | < 0.0127 | > 100 µM |  | > 100 µM | < 0.01 | > 100 µM | < 0.01 | > 100 µM | < 0.01 | > 100 µM | 0.0171 | > 100 | < 0.01 | > 100 µM | < 0.01 | 
13 | Cc1cc(C#Cc2ccc(C(C)(C)C)cc2)ccc1-n1c(/C=C/c2ccc(O)cc2O)nc2ccccc2c1=O | 1.81 | 3.71 µM | 7.48 | 26.8 µM | 5.88 | 20.5 µM | 2.17 | 8.25 µM | 1.88 | 4.46 µM | 3.28 | 14.1 µM | 2.08 | 5.27 µM | 3.85 | 24.4 | 2.11 | 6.03 µM | 1.87 | 16 µM
